In patent US10561735B2, “Solid formulations of liquid biologically active agents” (Paladin Labs Inc., priority 2004, dated 2020):
Values after ≈ are worked out from the molar mass of the structure shown.

How the values were obtained:
[1] = Reconstitution of lyophilized cake: time, appearance, visual stability (no precipitation or phase separation); format: physicochemical; details: PVP-PLA 90 mg/mL, 75 mM sodium phosphate buffer pH 7.4
Method: PVP-PDLLA (POLYMER 1 and POLYMER 2) samples were dissolved in mixtures of water and various amounts of tert-butyl alcohol (TBA). Propofol is then added to the PVP-PDLLA solution. Water is then added to the TBA/PVP-PDLLA/propofol solution to the desired final volume. Final TBA concentration in these solutions was 10-30%. Drug loading levels, % w/w of propofol/(propofol PVP-PDLLA), were also varied from 5, 7, 8, 10, 12, 15 and 20%. Solutions were then frozen in a dry ice/acetone bath and lyophilized for at least 24 hours.
PVP-PDLLA (POLYMER 1) is dissolved directly in water at concentrations between 100 to 350 mg/mL. Propofol is added to the PVP-PDLLA solution and mixed until a homogenous solution is obtained. The solution is then diluted to a concentration of 1% w/v of propofol. 7, 10 and 12% w/w drug loading levels were tested. All solutions were then filtered using 0.2 μm sterile filters and frozen in acetone/dry ice bath or in −80° C. freezer for at least 4 hours before being lyophilized for 48 hours. Solid lyophilized cakes of 7, 10 and 12% w/w were reconstituted by adding water for injection.
PVP-PDLLA (lot # POLYMER 1, POLYMER 2, POLYMER 3, POLYMER 4 and POLYMER 5) is dissolved directly in 100 mM sodium phosphate buffer, pH 7.4, at concentrations between 100 to 350 mg/mL. Propofol is added to the PVP-PDLLA solution and mixed until a homogenous solution is obtained. […]

humans or animals = details: cited from earlier work
[2] = room temperature; cited from earlier work

| SMILES | appearance after reconstitution by addition of water [1] | half life (humans or animals; in vivo) [min] | time to hypnosis from the start of an administration (humans or animals; intravenous injection of a therapeutic dose) [s] | aqueous solubility [2] [µg/mL] |
| --- | --- | --- | --- | --- |
| OCCOc1ccccc1 [2-phenoxyethanol] | Clear solutions | – | – | – |
| CC(C)c1cccc(C(C)C)c1O [Propofol, 2,6-bis-(1-methylethyl)phenol] | – | 10 to 15 | ≤ 40 | ~154 (≈ 864 µM) |
| Cc1ccc2ccccc2n1 [quinaldine] | Clear solutions | – | – | – |
